Here are results for two compounds from publication PMC10675777, “Experimental Evaluation of the Hypersensitivity Reactions of a New Glycopeptide Antibiotic Flavancin in Animal Models” (Pharmaceuticals, 2023).

The subject of data set [1] is guinea pigs. The experiment in a line: General anaphylaxis reaction (anaphylactic shock).
Method: In order to determine the anaphylactogenic properties of flavancin, we selected two technically simple and easily reproducible tests: general anaphylaxis reaction and active skin anaphylaxis.
Adult guinea pigs weighing 300–350 g were randomized into three groups (n = 10). […] These doses were determined based on the effectiveness in mice (ED100), with adjustments made using the coefficient of the animals’ body surface [28]. Saline was used as the control in the experiment. As for the reference agent, cattle serum was employed, with a dose of 0.1 mL for sensitizing doses and 0.5 mL for the resolving doses. The sensitizing doses were following a scheme: the first injection was given subcutaneously, while the subsequent two injections were administrated intramuscularly, with a 48 h interval between each injection. The resolving dose was administered intracardially 21 days after the last day of sensitization.
The test system of data set [2] is concanavalin A. As to conditions: for The Mass of the Hind Leg Foot, Con A, Me, Mean ± SD / The Mass of the Hind Leg Foot, Saline, Mc, Mean ± SD: female CBA mice, n = 10, weighed 1 h later; for The Mass of the Hind Leg Foot, Con A, Me, Mean ± SD: Con A 0.5% into pad 1 h post-injection; for The Mass of the Hind Leg Foot, Saline, Mc, Mean ± SD: saline into contralateral pad; for RI (reaction index to concanavalin A) / Relative Increase Me Over Mc: mice; for Relative Increase Me Over Mc: (Me − Mc)/Mc × 100%. As for the experimental part:
Its administration causes nonimmune activation of histamine release and inflammatory edema at the injection site.
The experiment was carried out in accordance with «Guidelines on the assessment of allergic properties of drugs» [30]. Healthy female CBA mice weighing 20–24 g were divided into five groups, in cages of 10. […] 10 mL/kg of 5% glucose solution was administered to the animals of control group. One hour post-injection, 0.5% Con A in isotonic sodium chloride solution (0.01 mL/10 g body mass) was injected into the pad of the hind legs and the same volume of isotonic solution of sodium chloride was injected into the contralateral extremity of mice in the experimental and control groups. One hour later, the mice were euthanized. The hind legs were amputated at the hock joint and weighed. Relative increase Me over Mc in each group was calculated using the formula (Me − Mc)/Mc × 100%, where Me is the mass of the foot injected with Con A and Mc is the mass of the foot injected with saline solution. The RI of the group of animals receiving the drug, exceeding 20%, is considered significant and indicates an inflammatory reaction to concanavalin A.

The conditions of data set [3]: rat, in vivo, iv, 6.25 mg/kg.
Method: Experimental animals were divided into groups of six at each time point. Flavancin was administered intravenously into the tail vein at a single dose of 6.25 mg/kg (5 TD). Control rats were injected with glucose solution in the same volume. Blood was collected 5, 15, 30 min and 1 h after injection into heparinized plastic tubes. Blood samples were centrifuged for 20 min at 1500 rpm. The supernatant was poured into tubes and stored at −20 °C until chromatographic analysis. Quantitative determination of flavancin in blood samples was carried out by high-performance liquid chromatography method (HPLC) with fluorimetric detection.
The method is based on the chromatography of specially prepared samples using a high-performance liquid chromatograph with a fluorescence detector and a reversed-phase column.
Gradient separation was performed at 40 °C on a column Jupiter C18 (250 mm × 4.6 mm, particle size 5 microns; Security Guard Cartridge, Phenomenex, Torrance, CA, USA). […] Detection was carried out using a fluorescence detector (Waters 2475, Waters Associates, Framingham, MA, USA) (excitation—240 nm, emission—330 nm). […] The lower limit of the quantitative determination of flavancin was 0.8 µg/mL. […]
Eight hundred µL of supernatant was replaced in 1.5 mL Eppendorf plastic tubes. […] The supernatant was analyzed by HPLC. […]
For data set [4], the system named is histamine. The experiment in a line: Histamine in blood plasma after intravenous administration (Histamine-ELISA). As to conditions: for Histamine Level in plasma: female CBA mice, n = 10, single i.v., equitoxic doses (~MTD): vancomycin 300 mg/kg, flavancin 100 mg/kg, ELISA. On the technique in general: ELISA stands for enzyme-linked immunosorbent assay.
Method: The amount of histamine in the blood plasma of mice was detected 0.5, 1.5 and 3 min after a single intravenous administration of drugs.
Female CBA mice weighing 18–20 g were divided into groups of 10 animals each. Flavancin was dissolved in 5% glucose and administrated via the tail vein to the mice at a dose equivalent to one TD (2.5 mg/kg) or MTD (100 mg/kg). […] Untreated animals were used as the control group.
The animals were euthanized after 0.5, 1 and 1.5 min in an experiment using equiterapeutic doses and 0.5, 1.5 and 3 min for an experiment with the use of equitoxic doses, and the blood samples were collected after the drug administration. Next, 500 µL of whole blood, which had been drawn into 10 µL of heparin (30–50 IU) was centrifuged for 20 min at 2000 rpm. To perform the histamine analyses, 20 µL of plasma was mixed with dilutions of saline at ratios of 1:10 and 1:20. The amount of histamine was determined using an automatic biochemical and enzyme immunoassay analyzer (ChemWell, Awareness Technology, Inc., Palm City, FL, USA). The histamine detection was performed using the Histamine-ELISA reagent kit (Tecan Group Company, Männedorf, Switzerland).
The test system of data set [5] is guinea pigs. Conditions: Evans blue. As for the experimental part:
In the study of active skin anaphylaxis, the sensitizing doses of flavancin were administered following the same scheme as described previously. The resolving dose, which consisted of a 0.1% solution of the dosage form of the drug in a 5% glucose solution with a volume of 0.05 mL per guinea pig, was administered intradermally 21 days after the last day of sensitization into a previously […] area of the flank skin. After 30 min, both the experimental and control groups of animals were intracardially injected with 0.5 mL of 1% Evans blue solution. Thirty minutes later, the animals were euthanized using ether anesthesia. The skin where the drug was intradermally administrated was then separated, and the diameter of the blue spot was measured and recorded. The collected quantitative data were statistically analyzed using a significance level of p < 0.05.

Data set [6] relates to patients. Conditions: patients treated with vancomycin; cited from earlier work. The method, then: This reaction is typically associated with intravenous administration of doses exceeding 1000 mg and administrated at a rate of less than 60 min [5]. […] More recently, the mechanism behind some IgE-independent reactions, previously referred to as pseudo ...
Details of data set [7]: method as in PMID 1693055. Conditions: cited from earlier work.

Structures can show the parent of a compound that is named as a salt. Where two headings read alike, the source gives them in different places.

Regarding `CN[C@H](CC(C)C)C(=O)N[C@H]1C(=O)N[C@@H](CC(N)=O)C(=O)N[C@H]2C(=O)N[C@H]3C(=O)N[C@H](C(=O)N[C@H](C(=O)NCCNCc4ccccc4F)c4cc(O)cc(O)c4-c4cc3ccc4O)[C@H](O[C@H]3C[C@](C)(N)[C@@H](O)[C@H](C)O3)c3ccc(cc3)Oc3cc2cc(c3O[C@@H]2O[C@H](CO)[C@@H](O)[C@H](O)[C@H]2O[C@H]2C[C@](C)(N)[C@@H](O)[C@H](C)O2)Oc2ccc(cc2Cl)[C@H]1O` [flavancin, N-(2((2-fluorobenzyl)amino)ethyl)amide of eremomycin hydrochloride], the “Effect (general anaphylaxis reaction, anaphylactic shock)” value in data set [1] (n = 10, sensitized with saline solution 1.0 mL x3, resolving flavancin 3.0 mg/kg intracardially) was “no”; in data set [1] (n = 10, sensitizing 0.5 mg/kg (1TD) subcutaneous then twice intramuscularly, 48 h interval, resolving 3.0 mg/kg (6TD) intracardially 21 days after sensitization) it was “does not induce anaphylactic shock and no”; in data set [1] (n = 10, sensitizing 1.5 mg/kg (3TD) subcutaneous then twice intramuscularly, 48 h interval, resolving 3.0 mg/kg (6TD) intracardially 21 days after sensitization), “does not induce anaphylactic shock and no”. The “The Mass of the Hind Leg Foot, Con A, Me, Mean ± SD” value amounted to 151.5 ± 3.0 mg in data set [2] (drug i.v. at MTD) and 154.3 ± 2.1 mg in data set [2] (drug i.v. at TD). Also, the results for the “The Mass of the Hind Leg Foot, Saline, Mc, Mean ± SD” value in data set [2] (drug i.v. at MTD) and in data set [2] (drug i.v. at TD) were 139.3 ± 2.9 mg and 142.1 ± 2.0 mg, respectively. For the same compound, the “RI (reaction index to concanavalin A)” value in data set [2] (both doses studied (TD and MTD), below 20% means no pseudoallergic reaction) is on record as “less than 20%”; in data set [2] (drug i.v. at MTD, RI exceeding 20% is significant) it was 7.3%; in data set [2] (drug i.v. at TD, RI exceeding 20% is significant) it was 3.7%. Besides, the “Relative Increase Me Over Mc” value is 8.8% in data set [2] (drug i.v. at MTD) and 8.5% in data set [2] (drug i.v. at TD). This compound yielded a level at 1 h in data set [3] of 5000 ng/mL. The “Histamine Level in plasma” value was found to be 549.9 ± 92.6 µg/L in data set [4] (0.5 min), 796.2 ± 56.3 µg/L in data set [4] (1.5 min) and 297.7 ± 54.9 µg/L in data set [4] (3 min). The “Histamine level in the blood compared to vancomycin” value in data set [4] (mice, equivalent (therapeutic) dose, after 30 s) is on record as “three times lower”. Moreover, the “Blue Spot Diameter” value in data set [5] (sensitizing 0.5 mg/kg x3, resolving 0.05 mL per pig of 0.1% solution 21 days after sensitization) was 2.3 ± 0.6 cm; in data set [5] (sensitizing 1.5 mg/kg x3, resolving 0.05 mL per pig of 0.1% solution 21 days after sensitization), 2.4 ± 0.5 cm.

Consider vancomycin [reference compound], for which the “Occurrence of Red Man Syndrome (non-IgE-mediated hypersensitivity)” value in data set [6] was 4–47%. For the same compound, the “The Mass of the Hind Leg Foot, Con A, Me, Mean ± SD” value in data set [2] (drug i.v. at MTD) was determined as 149.4 ± 3.0 mg; in data set [2] (drug i.v. at TD), 158.1 ± 3.8 mg. For the same compound, the “The Mass of the Hind Leg Foot, Saline, Mc, Mean ± SD” value in data set [2] (drug i.v. at MTD) turned out to be 131.8 ± 3.6 mg; in data set [2] (drug i.v. at TD), 140.4 ± 2.3 mg. The “Vancomycin concentration in the blood after infusion” value in data set [7] (60-min intravenous infusion at a therapeutic dose, before the decrease) is 51.1 ± 9.2. In data set [7] (1 h after a 60-min intravenous infusion at a therapeutic dose), the “Vancomycin concentration in the blood 1 h after infusion” value is reported as 24.9 ± 2.9.
